From PubChem BioAssay AID328 (DTP/NCI, 2004)
Where “and” joins values, the source holds several entries; their conditions need not be identical. Equal values may be shown once. Toxic doses and inconclusive results are not listed.

System: BDF1 mice, P388 leukemia ip, median survival T/C
Assay: NCI In Vivo Anticancer Drug Screen. Data for tumor model P388 Leukemia (intraperitoneal) in B6D2F1 (BDF1) mice
Conditions: endpoint: median survival time, higher = longer survival
In short: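 Steps: implant the tumour, treat one group with compound and another with vehicle, record survival, then divide treated by control.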

[1] = dose: 25.0 mg/kg/injection, schedule: Q01DX009 (ip), vehicle: saline with Tween-80
[2] = dose: 50.0 mg/kg/injection, schedule: Q01DX009 (ip), vehicle: saline with Tween-80
[3] = dose: 100.0 mg/kg/injection, schedule: Q01DX009 (ip), vehicle: saline with Tween-80
[4] = dose: 200.0 mg/kg/injection, schedule: Q01DX009 (ip), vehicle: saline with Tween-80
[5] = dose: 100.0 mg/kg/injection, schedule: Q01DX001 (ip), vehicle: saline with Tween-80
[6] = dose: 200.0 mg/kg/injection, schedule: Q01DX001 (ip), vehicle: saline with Tween-80
[7] = dose: 100.0 mg/kg/injection, schedule: Q01DX001 (ip), vehicle: Klucel (hydroxypropylcellulose) (HPC)

Question: CCCCc1ccc(NC(=O)N(CCCl)N=O)cc1 was tested. Which T/C (dose: 2.5 mg/kg/injection, schedule: Q01DX009 (ip), vehicle: Klucel (hydroxypropylcellulose) (HPC)) did it give?
Answer: 160 % of control

Question: What about the T/C (dose: 2.5 mg/kg/injection, schedule: Q04DX003 (ip), vehicle: Klucel (hydroxypropylcellulose) (HPC)) of the same molecule?
Answer: 175 % of control

Question: What about the T/C (dose: 4.0 mg/kg/injection, schedule: Q01DX009 (ip), vehicle: Klucel (hydroxypropylcellulose) (HPC)) of the same molecule?
Answer: 180 % of control

Question: What about the T/C (dose: 4.0 mg/kg/injection, schedule: Q04DX003 (ip), vehicle: Klucel (hydroxypropylcellulose) (HPC)) of the same molecule?
Answer: 191 % of control

Question: And the T/C (dose: 8.0 mg/kg/injection, schedule: Q01DX009 (ip), vehicle: Klucel (hydroxypropylcellulose) (HPC))?
Answer: 230 % of control

Question: What about the T/C (dose: 8.0 mg/kg/injection, schedule: Q04DX003 (ip), vehicle: Klucel (hydroxypropylcellulose) (HPC)) of the same molecule?
Answer: 208 % of control

Question: And the T/C (dose: 10.0 mg/kg/injection, schedule: Q04DX003 (ip), vehicle: other)?
Answer: 172 % of control

Question: And the T/C (dose: 16.0 mg/kg/injection, schedule: Q01DX009 (ip), vehicle: Klucel (hydroxypropylcellulose) (HPC))?
Answer: 225 % of control

Question: And the T/C (dose: 16.0 mg/kg/injection, schedule: Q04DX003 (ip), vehicle: Klucel (hydroxypropylcellulose) (HPC))?
Answer: 233 % of control

Question: What about the T/C (dose: 20.0 mg/kg/injection, schedule: Q04DX003 (ip), vehicle: other) of the same molecule?
Answer: 172 % of control

Question: And the T/C (dose: 32.0 mg/kg/injection, schedule: Q01DX009 (ip), vehicle: Klucel (hydroxypropylcellulose) (HPC))?
Answer: 100 % of control

Question: And the T/C (dose: 66.0 mg/kg/injection, schedule: Q04DX003 (ip), vehicle: other)?
Answer: 222 % of control

Question: What about the T/C (dose: 99.0 mg/kg/injection, schedule: Q04DX003 (ip), vehicle: other) of the same molecule?
Answer: 186 % of control

Question: And the T/C (dose: 150.0 mg/kg/injection, schedule: Q04DX003 (ip), vehicle: other)?
Answer: 254 % of control

Question: What about the T/C (dose: 225.0 mg/kg/injection, schedule: Q04DX003 (ip), vehicle: other) of the same molecule?
Answer: 245 % of control

Question: For CC(C)C[CH2][Pb]([Cl])([CH2]CC(C)C)[CH2]CC(C)C, which T/C (dose: 0.12 mg/kg/injection, schedule: Q01DX009 (ip), vehicle: Klucel (hydroxypropylcellulose) (HPC)) is on record?
Answer: 104 % of control

Question: And the T/C (dose: 0.25 mg/kg/injection, schedule: Q01DX009 (ip), vehicle: Klucel (hydroxypropylcellulose) (HPC))?
Answer: 106 % of control

Question: And the T/C (dose: 0.5 mg/kg/injection, schedule: Q01DX009 (ip), vehicle: Klucel (hydroxypropylcellulose) (HPC))?
Answer: 109 % of control

Question: What about the T/C (dose: 1.0 mg/kg/injection, schedule: Q01DX009 (ip), vehicle: Klucel (hydroxypropylcellulose) (HPC)) of the same molecule?
Answer: 120 % of control

Question: Which T/C (dose: 12.5 mg/kg/injection, schedule: Q01DX009 (ip), vehicle: saline with Tween-80) does the source give for CC(=O)CC(=O)NCCCN1CCCCC1 here?
Answer: 92 % of control

Question: What about the T/C [1] of the same molecule?
Answer: 88 % of control

Question: And the T/C (dose: 25.0 mg/kg/injection, schedule: Q04DX003 (ip), vehicle: saline with Tween-80)?
Answer: 96 % of control

Question: And the T/C (dose: 50.0 mg/kg/injection, schedule: Q04DX003 (ip), vehicle: saline with Tween-80)?
Answer: 88 % of control

Question: CCOC(=O)C(Cc1ccc(N(CCCl)CCCl)cc1)NC(=O)C(NC(C)=O)C(C)C (centres undefined) was tested. Which T/C (dose: 5.0 mg/kg/injection, schedule: Q04DX003 (ip), vehicle: water) did it give?
Answer: 109 % of control

Question: And the T/C (dose: 10.0 mg/kg/injection, schedule: Q04DX003 (ip), vehicle: water)?
Answer: 157 % of control

Question: And the T/C (dose: 20.0 mg/kg/injection, schedule: Q04DX003 (ip), vehicle: water)?
Answer: 223 % of control

Question: And the T/C (dose: 40.0 mg/kg/injection, schedule: Q04DX003 (ip), vehicle: water)?
Answer: 264 % of control

Question: What about the T/C (dose: 80.0 mg/kg/injection, schedule: Q04DX003 (ip), vehicle: water) of the same molecule?
Answer: 150 % of control

Question: With CCOC(=O)C(OCc1ccccc1)(C(=O)O)C(C)C (centres undefined) as the molecule, how does the T/C [1] read?
Answer: 95 % of control

Question: And the T/C [2]?
Answer: 90 % of control

Question: And the T/C [3]?
Answer: 109 % of control

Question: What about the T/C [4] of the same molecule?
Answer: 100 % of control

Question: And the T/C (dose: 400.0 mg/kg/injection, schedule: Q01DX009 (ip), vehicle: saline with Tween-80)?
Answer: 104 % of control

Question: [CH3][Hg][O]C(C)=O was tested. Which T/C (dose: 3.12 mg/kg/injection, schedule: Q01DX009 (ip), vehicle: Klucel (hydroxypropylcellulose) (HPC)) did it give?
Answer: 107 % of control

Question: And the T/C (dose: 6.25 mg/kg/injection, schedule: Q01DX009 (ip), vehicle: Klucel (hydroxypropylcellulose) (HPC))?
Answer: 113 % of control

Question: For c1ccc(SCC2c3ccccc3Nc3ccccc32)cc1, which T/C [5] is on record?
Answer: 109 % of control

Question: What about the T/C [6] of the same molecule?
Answer: 114 % of control

Question: What about the T/C (dose: 400.0 mg/kg/injection, schedule: Q01DX001 (ip), vehicle: saline with Tween-80) of the same molecule?
Answer: 109 % of control

Question: O=c1[nH]cc(CCc2ccccc2)c(=O)[nH]1 was tested. Which T/C [7] did it give?
Answer: 105 % of control

Question: What about the T/C (dose: 100.0 mg/kg/injection, schedule: Q01DX009 (ip), vehicle: Klucel (hydroxypropylcellulose) (HPC)) of the same molecule?
Answer: 100 % of control

Question: And the T/C (dose: 100.0 mg/kg/injection, schedule: Q04DX003 (ip), vehicle: Klucel (hydroxypropylcellulose) (HPC))?
Answer: 104 % of control

Question: What about the T/C (dose: 200.0 mg/kg/injection, schedule: Q01DX009 (ip), vehicle: Klucel (hydroxypropylcellulose) (HPC)) of the same molecule?
Answer: 88 % of control

Question: What about the T/C (dose: 200.0 mg/kg/injection, schedule: Q04DX003 (ip), vehicle: Klucel (hydroxypropylcellulose) (HPC)) of the same molecule?
Answer: 100 % of control

Question: What about the T/C (dose: 400.0 mg/kg/injection, schedule: Q01DX001 (ip), vehicle: Klucel (hydroxypropylcellulose) (HPC)) of the same molecule?
Answer: 105 % of control

Question: And the T/C (dose: 400.0 mg/kg/injection, schedule: Q01DX009 (ip), vehicle: Klucel (hydroxypropylcellulose) (HPC))?
Answer: 92 % of control

Question: Which T/C [2] does the source give for COC(=O)CCC(C)C1CCC2C3CCC4CC(SC(=N)N)CCC4(C)C3CC(O)C12C (centres undefined) here?
Answer: 91 % of control

Question: And the T/C [3]?
Answer: 89 % of control

Question: And the T/C [4]?
Answer: 89 % of control

Question: For COc1cccc(N2C(=O)CSC2=S)c1, which T/C [3] is on record?
Answer: 91 % of control

Question: What about the T/C [4] of the same molecule?
Answer: 100 % of control

Question: How did the T/C (dose: 50.0 mg/kg/injection, schedule: Q01DX001 (ip), vehicle: saline with Tween-80) turn out when O=C1Nc2ccccc2C12Nc1cccnc1N2 (centres undefined) was run?
Answer: 91 % of control

Question: And the T/C [5]?
Answer: 87 % of control

Question: And the T/C [6]?
Answer: 91 % of control

Question: For O=C1NC(=O)C(=Cc2cc3c(cc2Br)OCO3)C(=O)N1, which T/C (dose: 75.0 mg/kg/injection, schedule: Q01DX009 (ip), vehicle: saline with Tween-80) is on record?
Answer: 123 % of control

Question: What about the T/C [3] of the same molecule?
Answer: 124 % of control

Question: What about the T/C (dose: 150.0 mg/kg/injection, schedule: Q01DX009 (ip), vehicle: saline with Tween-80) of the same molecule?
Answer: 120 % of control

Question: Which results are given for CN1c2c(nc(N)[nH]c2=O)NCC1CCNc1ccc(C(=O)NC(CCC(=O)O)C(=O)O)cc1 (centres undefined)?
Answer: T/C (dose: 6.25 mg/kg/injection, schedule: Q01DX009 (ip), vehicle: other): 100 % of control; T/C (dose: 12.5 mg/kg/injection, schedule: Q01DX009 (ip), vehicle: other): 100 % of control; T/C (dose: 25.0 mg/kg/injection, schedule: Q01DX009 (ip), vehicle: other): 109 % of control; T/C (dose: 50.0 mg/kg/injection, schedule: Q01DX009 (ip), vehicle: other): 109 % of control; T/C (dose: 50.0 mg/kg/injection, schedule: Q01DX009 (ip), vehicle: saline): 104 % of control; T/C (dose: 100.0 mg/kg/injection, schedule: Q01DX009 (ip), vehicle: saline): 112 % of control; T/C (dose: 100.0 mg/kg/injection, schedule: Q04DX003 (ip), vehicle: saline): 109 % of control; T/C (dose: 200.0 mg/kg/injection, schedule: Q01DX009 (ip), vehicle: other): 118 % of control; T/C (dose: 200.0 mg/kg/injection, schedule: Q01DX009 (ip), vehicle: saline): 122 % of control; T/C (dose: 200.0 mg/kg/injection, schedule: Q04DX003 (ip), vehicle: saline): 109 % of control; T/C (dose: 400.0 mg/kg/injection, schedule: Q04DX003 (ip), vehicle: saline): 90 % of control

Question: CN(C)P(Cl)(Cc1ccccc1)(c1ccccc1)c1ccccc1 was tested. Which T/C (dose: 3.0 mg/kg/injection, schedule: Q01DX009 (ip), vehicle: saline) did it give?
Answer: 108 % of control

Question: What about the T/C (dose: 3.0 mg/kg/injection, schedule: Q04DX003 (ip), vehicle: saline) of the same molecule?
Answer: 110 % of control

Question: What about the T/C (dose: 6.0 mg/kg/injection, schedule: Q01DX009 (ip), vehicle: saline) of the same molecule?
Answer: 116 % of control and 122 % of control

Question: What about the T/C (dose: 6.0 mg/kg/injection, schedule: Q04DX003 (ip), vehicle: saline) of the same molecule?
Answer: 105 % of control

Question: And the T/C (dose: 12.0 mg/kg/injection, schedule: Q04DX003 (ip), vehicle: saline)?
Answer: 110 % of control

Question: For CCC[CH2][Sn]1([CH2]CCC)[O]OC2(CCCCC2)[O]1, which T/C (dose: 1.25 mg/kg/injection, schedule: Q01DX009 (ip), vehicle: Klucel (hydroxypropylcellulose) (HPC)) is on record?
Answer: 115 % of control

Question: And the T/C (dose: 1.57 mg/kg/injection, schedule: Q04DX003 (ip), vehicle: saline sonified)?
Answer: 122 % of control

Question: What about the T/C (dose: 3.13 mg/kg/injection, schedule: Q04DX003 (ip), vehicle: saline sonified) of the same molecule?
Answer: 116 % of control

Question: What about the T/C (dose: 5.0 mg/kg/injection, schedule: Q01DX009 (ip), vehicle: Klucel (hydroxypropylcellulose) (HPC)) of the same molecule?
Answer: 115 % of control

Question: For Nc1nc(=S)c2[nH]c(N=Nc3ccc(S(=O)(=O)Nc4nccs4)cc3)nc2[nH]1, which T/C (dose: 25.0 mg/kg/injection, schedule: Q01DX001 (ip), vehicle: Klucel (hydroxypropylcellulose) (HPC)) is on record?
Answer: 115 % of control

Question: What about the T/C [7] of the same molecule?
Answer: 117 % of control

Question: And the T/C (dose: 200.0 mg/kg/injection, schedule: Q01DX001 (ip), vehicle: Klucel (hydroxypropylcellulose) (HPC))?
Answer: 120 % of control
